Values quoted from earlier work as cited in patent US9370540B2, “K2 composition and the preparation method and use of the same” (SINPHAR PHARMACEUTICAL CO., LTD., priority 2014, dated 2016).

System: A549 cells
Details: from Molecular Carcinogenesis papers

For `C=C(CC[C@@H](C(=O)O)[C@H]1[C@H](O)C[C@@]2(C)C3=CC[C@H]4C(C)(C)C(=O)CC[C@]4(C)C3=CC[C@]12C)C(C)C` [polyporenic acid C], the “IC50, inhibiting the growth of lung cancer cells” value is given as “about 15 μg/ml”.
